Biological target: T1, p53 Y220C (Homo sapiens, UniProt P04637, Y220C)
T1 construct: The recombinant protein was a truncation mutant containing only amino acids 94-312 of p53; made in house; host or cells: E. coli
Test: In vitro DNA binding activity assay (HTRF / TR-FRET): stabilization of p53 Y220C and increase of its DNA binding activity
Format: biochemical
Conditions: recombinant His-tagged p53 Y220C DNA binding domain (aa 94-312), biotin-labeled consensus DNA, incubated at 27° C. or 29° C. for 60 min
Method in brief: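 E. coli His-p53 Y220C + biotin consensus DNA; anti-His-APC/SA-Eu TR-FRET. SC150 vs no-compound.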

T1 sequence (P04637 94-312, change not shown): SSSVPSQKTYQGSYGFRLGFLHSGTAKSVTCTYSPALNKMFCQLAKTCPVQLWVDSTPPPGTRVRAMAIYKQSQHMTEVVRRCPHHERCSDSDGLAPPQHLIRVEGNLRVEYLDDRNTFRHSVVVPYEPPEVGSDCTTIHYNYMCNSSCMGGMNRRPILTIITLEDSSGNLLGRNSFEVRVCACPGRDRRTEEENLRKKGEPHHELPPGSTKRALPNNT

SMILES | SC150 (concentration of the compound required to increase the DNA binding activity by 50%)
CNC(=O)c1ccc(NCC#Cc2cc3c(N[C@H]4CC[C@H](N5CCC6(CCO6)CC5)CC4)cccc3n2CC(F)(F)F)c(OC)c1 [Compound 385A, 3-methoxy-N-methyl-4-{[3-(4-{[(1R,4R)-4-{1-oxa-7-azaspiro[3.5]nonan-7-yl}cyclohexyl]amino}-1-(2,2,2-trifluoroethyl)-1H-indol-2-yl)prop-2-yn-1-yl]amino}benzamide] | + (+ = 0 μM ≤ SC150 < 0.05 μM)
COc1cc(S(N)(=O)=O)ccc1NCC#Cc1cc2c(N[C@H]3CC[C@H](N4CCC5(CCO5)CC4)CC3)cccc2n1CC(F)(F)F [Compound 387A, 3-methoxy-4-{[3-(4-{[(1R,4R)-4-{1-oxa-7-azaspiro[3.5]nonan-7-yl}cyclohexyl]amino}-1-(2,2,2-trifluoroethyl)-1H-indol-2-yl)prop-2-yn-1-yl]amino}benzene-1-sulfonamide] | + (+ = 0 μM ≤ SC150 < 0.05 μM)
CS(=O)(=O)c1ccc(NCC#Cc2cc3c(N[C@H]4CC[C@H](N5CCC6(CC5)COC6)CC4)cccc3n2CC(F)(F)F)c(OCC#N)c1 [Compound 389A, 2-(5-methanesulfonyl-2-{[3-(4-{[(1R,4R)-4-{2-oxa-7-azaspiro[3.5]nonan-7-yl}cyclohexyl]amino}-1-(2,2,2-trifluoroethyl)-1H-indol-2-yl)prop-2-yn-1-yl]amino}phenoxy)acetonitrile] | + (+ = 0 μM ≤ SC150 < 0.05 μM)
CS(=O)(=O)c1ccc(NCC#Cc2cc3c(N[C@H]4CC[C@@H](N5CCC6(CC5)COC6)CC4)cccc3n2CC(F)(F)F)c(OCC#N)c1 [Compound 390A, 2-(5-methanesulfonyl-2-{[3-(4-{[(1S,4S)-4-{2-oxa-7-azaspiro[3.5]nonan-7-yl}cyclohexyl]amino}-1-(2,2,2-trifluoroethyl)-1H-indol-2-yl)prop-2-yn-1-yl]amino}phenoxy)acetonitrile] | + (+ = 0 μM ≤ SC150 < 0.05 μM)
CS(=O)(=O)c1ccc(NCC#Cc2cc3c(N[C@H]4CC[C@H](N5CCC6(CC5)COC6)CC4)cccc3n2CC(F)(F)F)c(OCF)c1 [Compound 391A, 2-(3-{[2-(fluoro-methoxy)-4-methane-sulfonylphenyl]amino}prop-1-yn-1-yl)-N-[(1R,4R)-4-(2-oxa-7-azaspiro[3.5]nonan-7-yl}cyclohexyl]-1-(2,2,2-trifluoroethyl)-1H-indol-4-amine] | + (+ = 0 μM ≤ SC150 < 0.05 μM)
CCOc1cc(S(C)(=O)=O)ccc1NCC#Cc1cc2c(N[C@H]3CC[C@H](N4CCC5(CC4)COC5)CC3)cccc2n1CC(F)(F)F [Compound 393A, N-((1R,4R)-4-(2-oxa-7-azaspiro[3.5]nonan-7-yl)cyclohexyl)-2-(3-((2-ethoxy-4-(methylsulfonyl)phenyl)amino)prop-1-yn-1-yl)-1-(2,2,2-trifluoroethyl)-1H-indol-4-amine] | + (+ = 0 μM ≤ SC150 < 0.05 μM)
CNS(=O)(=O)c1ccc(NCC#Cc2cc3c(N[C@H]4CC[C@H](N5CCC6(CC5)COC6)CC4)cccc3n2CC(F)(F)F)c(OC)c1 [Compound 395A, 3-methoxy-N-methyl-4-{[3-(4-{[(1R,4R)-4-{2-oxa-7-azaspiro[3.5]nonan-7-yl}cyclohexyl]amino}-1-(2,2,2-trifluoroethyl)-1H-indol-2-yl)prop-2-yn-1-yl]amino}benzene-1-sulfonamide] | + (+ = 0 μM ≤ SC150 < 0.05 μM)
COc1cc(S(C)(=O)=O)ccc1NCC#Cc1cc2c(N[C@H]3CC[C@H](N4CC5CC(C4)O5)CC3)cccc2n1CC(F)(F)F [Compound 398A, 2-{3-[(4-methanesulfonyl-2-methoxyphenyl)amino]prop-1-yn-1-yl}-N-[(1R,4R)-4-{6-oxa-3-azabicyclo[3.1.1]heptan-3-yl}cyclohexyl]-1-(2,2,2-trifluoroethyl)-1H-indol-4-amine] | + (+ = 0 μM ≤ SC150 < 0.05 μM)
COc1cc(S(C)(=O)=O)ccc1NCC#Cc1cc2c(N[C@H]3CC[C@@H](N4CC5CC(C4)O5)CC3)cccc2n1CC(F)(F)F [Compound 399A, 2-{3-[(4-methanesulfonyl-2-methoxyphenyl)amino]prop-1-yn-1-yl}-N-[(1S,4S)-4-{6-oxa-3-azabicyclo[3.1.1]heptan-3-yl}cyclohexyl]-1-(2,2,2-trifluoroethyl)-1H-indol-4-amine] | + (+ = 0 μM ≤ SC150 < 0.05 μM)
COc1cc(S(N)(=O)=O)ccc1NCC#Cc1cc2c(N[C@H]3CC[C@H](N4CC5CC(C4)O5)CC3)cccc2n1CC(F)(F)F [Compound 400A, 3-methoxy-4-{[3-(4-{[(1R,4R)-4-{6-oxa-3-azabicyclo[3.1.1]heptan-3-yl}cyclohexyl]amino}-1-(2,2,2-trifluoroethyl)-1H-indol-2-yl)prop-2-yn-1-yl]amino}benzene-1-sulfonamide] | + (+ = 0 μM ≤ SC150 < 0.05 μM)
COc1cc(S(N)(=O)=O)ccc1NCC#Cc1cc2c(N[C@H]3CC[C@@H](N4CC5CC(C4)O5)CC3)cccc2n1CC(F)(F)F [Compound 401A, 3-methoxy-4-{[3-(4-{[(1S,4S)-4-{6-oxa-3-azabicyclo[3.1.1]heptan-3-yl}cyclohexyl]amino}-1-(2,2,2-trifluoroethyl)-1H-indol-2-yl)prop-2-yn-1-yl]amino}benzene-1-sulfonamide] | ++ (++ = 0.05 μM ≤ SC150 < 0.1 μM)
CNC(=O)c1ccc(NCC#Cc2cc3c(N[C@H]4CC[C@H](N5CC6CC(C5)O6)CC4)cccc3n2CC(F)(F)F)c(OC)c1 [Compound 402A, 3-methoxy-N-methyl-4-{[3-(4-{[(1R,4R)-4-{6-oxa-3-azabicyclo[3.1.1]heptan-3-yl}cyclohexyl]amino}-1-(2,2,2-trifluoroethyl)-1H-indol-2-yl)prop-2-yn-1-yl]amino}benzamide] | + (+ = 0 μM ≤ SC150 < 0.05 μM)
CNC(=O)c1ccc(NCC#Cc2cc3c(N[C@H]4CC[C@@H](N5CC6CC(C5)O6)CC4)cccc3n2CC(F)(F)F)c(OC)c1 [Compound 403A, 3-methoxy-N-methyl-4-{[3-(4-{[(1S,4S)-4-{6-oxa-3-azabicyclo[3.1.1]heptan-3-yl}cyclohexyl]amino}-1-(2,2,2-trifluoroethyl)-1H-indol-2-yl)prop-2-yn-1-yl]amino}benzamide] | ++ (++ = 0.05 μM ≤ SC150 < 0.1 μM)
CCOc1cc(S(C)(=O)=O)ccc1NCC#Cc1cc2c(N[C@H]3CC[C@H](N4CC5CC(C4)O5)CC3)cccc2n1CC(F)(F)F [Compound 404A, 2-{3-[(2-ethoxy-4-methanesulfonyl-phenyl)amino]prop-1-yn-1-yl}-N-[(1R,4R)-4-{6-oxa-3-azabicyclo[3.1.1]heptan-3-yl}cyclohexyl]-1-(2,2,2-trifluoroethyl)-1H-indol-4-amine] | + (+ = 0 μM ≤ SC150 < 0.05 μM)
CCOc1cc(S(C)(=O)=O)ccc1NCC#Cc1cc2c(N[C@H]3CC[C@@H](N4CC5CC(C4)O5)CC3)cccc2n1CC(F)(F)F [Compound 405A, 2-{3-[(2-ethoxy-4-mcthanesulfonyl-phenyl)amino]prop-1-yn-1-yl}-N-[(1S,4S)-4-{6-oxa-3-azabicyclo[3.1.1]heptan-3-yl}cyclohexyl]-1-(2,2,2-trifluoroethyl)-1H-indol-4-amine] | + (+ = 0 μM ≤ SC150 < 0.05 μM)
CCNC(=O)c1ccc(NCC#Cc2cc3c(N[C@H]4CC[C@H](N5CC6CC(C5)O6)CC4)cccc3n2CC(F)(F)F)c(OC)c1 [Compound 406A, N-ethyl-3-methoxy-4-{[3-(4-{[(1R,4R)-4-{6-oxa-3-azabicyclo[3.1.1]heptan-3-yl}cyclohexyl]amino}-1-(2,2,2-trifluoroethyl)-1H-indol-2-yl)prop-2-yn-1-yl]amino}benzamide] | + (+ = 0 μM ≤ SC150 < 0.05 μM)
CS(=O)(=O)c1ccc(NCC#Cc2cc3c(N[C@H]4CC[C@H](N5CC6CC(C5)O6)CC4)cccc3n2CC(F)(F)F)c(OCC#N)c1 [Compound 407A, 2-(5-methanesulfonyl-2-{[3-(4-{[(1R,4R)-4-{6-oxa-3-azabicyclo[3.1.1]heptan-3-yl}cyclohexyl]amino}-1-(2,2,2-trifluoroethyl)-1H-indol-2-yl)prop-2-yn-1-yl]amino}phenoxy)acetonitrile] | + (+ = 0 μM ≤ SC150 < 0.05 μM)
CNC(=O)c1ccc(NCC#Cc2cc3c(N[C@H]4CC[C@H](N5CCC6(CCOC6)CC5)CC4)cccc3n2CC(F)(F)F)c(OC)c1 [Compound 409A, 3-methoxy-N-methyl-4-{[3-(4-{[(1R,4R)-4-{2-oxa-8-azaspiro[4.5]decan-8-yl}cyclohexyl]amino}-1-(2,2,2-trifluoroethyl)-1H-indol-2-yl)prop-2-yn-1-yl]amino}benzamide] | + (+ = 0 μM ≤ SC150 < 0.05 μM)
COc1cc(S(C)(=O)=O)ccc1NCC#Cc1cc2c(N[C@H]3CC[C@H](N4CCC5(CCOC5)CC4)CC3)cccc2n1CC(F)(F)F [Compound 410A, 2-{3-[(4-methane-sulfonyl-2-methoxy-phenyl)amino]prop-1-yn-1-yl}-N-[(1R,4R)-4-{2-oxa-8-azaspiro[4.5]decan-8-yl}cyclohexyl]-1-(2,2,2-trifluoroethyl)-1H-indol-4-amine] | + (+ = 0 μM ≤ SC150 < 0.05 μM)
COc1cc(S(N)(=O)=O)ccc1NCC#Cc1cc2c(N[C@H]3CC[C@H](N4CCC5(CCOC5)CC4)CC3)cccc2n1CC(F)(F)F [Compound 411A, 3-methoxy-4-{[3-(4-{[(1R,4R)-4-{2-oxa-8-azaspiro[4.5]decan-8-yl}cyclohexyl]amino}-1-(2,2,2-trifluoroethyl)-1H-indol-2-yl)prop-2-yn-1-yl]amino}benzene-1-sulfonamide] | + (+ = 0 μM ≤ SC150 < 0.05 μM)

Reference: patent US12428406B2 (PMV Pharmaceuticals, Inc., priority 2019, dated 2025)
